Data as given in PubChem BioAssay AID328 (DTP/NCI, 2004).
Where “and” joins values, the source holds several entries; their conditions need not be identical. Equal values may be shown once. Toxic doses and inconclusive results are not listed.

System: BDF1 mice, P388 leukemia ip, median survival T/C
Experiment: NCI In Vivo Anticancer Drug Screen. Data for tumor model P388 Leukemia (intraperitoneal) in B6D2F1 (BDF1) mice
Conditions: endpoint: median survival time, higher = longer survival
Method: The antitumor activity of compounds was measured in mice bearing transplantable tumors. Survival or tumor size were measured and the results are expressed as the measurement made in the treated group (T) divided by the measurement made in the vehicle treated control group (C). The tumor model used in this assay is P388 Leukemia (intraperitoneal) in B6D2F1 (BDF1) mice

[1] = dose: 12.5 mg/kg/injection, schedule: Q01DX009 (ip), vehicle: Klucel (hydroxypropylcellulose) (HPC)
[2] = dose: 100.0 mg/kg/injection, schedule: Q01DX009 (ip), vehicle: Klucel (hydroxypropylcellulose) (HPC)
[3] = dose: 200.0 mg/kg/injection, schedule: Q01DX009 (ip), vehicle: Klucel (hydroxypropylcellulose) (HPC)
[4] = dose: 50.0 mg/kg/injection, schedule: Q04DX003 (ip), vehicle: saline with Tween-80
[5] = dose: 100.0 mg/kg/injection, schedule: Q04DX003 (ip), vehicle: saline with Tween-80
[6] = dose: 25.0 mg/kg/injection, schedule: Q04DX003 (ip), vehicle: saline with Tween-80
[7] = dose: 50.0 mg/kg/injection, schedule: Q01DX009 (ip), vehicle: saline with Tween-80
[8] = dose: 100.0 mg/kg/injection, schedule: Q01DX009 (ip), vehicle: saline with Tween-80
[9] = dose: 200.0 mg/kg/injection, schedule: Q01DX009 (ip), vehicle: saline with Tween-80

NC(=O)c1ccc[n+](Cc2c(Cl)cccc2Cl)c1
T/C (dose: 0.29 mg/kg/injection, schedule: Q01DX009 (ip), vehicle: saline): 105 % of control | T/C (dose: 0.44 mg/kg/injection, schedule: Q01DX009 (ip), vehicle: saline): 115 % of control | T/C (dose: 1.2 mg/kg/injection, schedule: Q04DX003 (ip), vehicle: saline): 122 % of control | T/C (dose: 1.25 mg/kg/injection, schedule: Q01DX009 (ip), vehicle: saline): 96 % of control | T/C (dose: 1.56 mg/kg/injection, schedule: Q01DX009 (ip), vehicle: saline): 160 % of control | T/C (dose: 2.5 mg/kg/injection, schedule: Q01DX009 (ip), vehicle: saline): 96 % of control | T/C (dose: 3.12 mg/kg/injection, schedule: Q01DX009 (ip), vehicle: saline): 185 % of control | T/C (dose: 4.12 mg/kg/injection, schedule: Q01DX009 (ip), vehicle: saline): 168 % of control | T/C (dose: 5.0 mg/kg/injection, schedule: Q01DX009 (ip), vehicle: saline): 96 % of control | T/C (dose: 6.25 mg/kg/injection, schedule: Q01DX009 (ip), vehicle: saline): 154 % of control and 191 % of control and 200 % of control | T/C (dose: 8.9 mg/kg/injection, schedule: Q04DX003 (ip), vehicle: saline): 163 % of control | T/C (dose: 10.0 mg/kg/injection, schedule: Q01DX009 (ip), vehicle: saline): 94 % of control | T/C (dose: 13.5 mg/kg/injection, schedule: Q04DX003 (ip), vehicle: saline): 154 % of control and 158 % of control | T/C (dose: 20.0 mg/kg/injection, schedule: Q01DX009 (ip), vehicle: saline): 109 % of control

C[C@]12CC[C@H]3[C@@H](CC[C@]4(O)C[C@@H](O)CC[C@]34C=O)[C@@]1(O)CC[C@@H]2C1=CC(=O)OC1
T/C [1]: 105 % of control | T/C (dose: 25.0 mg/kg/injection, schedule: Q01DX009 (ip), vehicle: Klucel (hydroxypropylcellulose) (HPC)): 95 % of control | T/C (dose: 25.0 mg/kg/injection, schedule: Q01DX010 (ip), vehicle: carboxymethylcellulose (CMC)): 100 % of control | T/C (dose: 50.0 mg/kg/injection, schedule: Q01DX009 (ip), vehicle: Klucel (hydroxypropylcellulose) (HPC)): 109 % of control and 115 % of control | T/C [2]: 100 % of control | T/C (dose: 100.0 mg/kg/injection, schedule: Q01DX010 (ip), vehicle: carboxymethylcellulose (CMC)): 105 % of control | T/C [3]: 100 % of control | T/C (dose: 200.0 mg/kg/injection, schedule: Q01DX010 (ip), vehicle: carboxymethylcellulose (CMC)): 105 % of control

CS(=O)(=O)OCCN(CCOS(C)(=O)=O)c1ccc(N=O)cc1
T/C (dose: 0.5 mg/kg/injection, schedule: Q01DX010 (ip), vehicle: saline): 122 % of control | T/C (dose: 1.0 mg/kg/injection, schedule: Q01DX010 (ip), vehicle: saline): 104 % of control | T/C (dose: 2.0 mg/kg/injection, schedule: Q01DX010 (ip), vehicle: saline): 86 % of control and 113 % of control | T/C (dose: 62.5 micrograms/kg/injection, schedule: Q01DX010 (ip), vehicle: saline): 158 % of control | T/C (dose: 125.0 micrograms/kg/injection, schedule: Q01DX010 (ip), vehicle: saline): 166 % of control

CCOC(=O)C(=CN(C(C)C)C(C)C)C(=O)OCC
T/C [4]: 109 % of control | T/C [5]: 104 % of control | T/C (dose: 200.0 mg/kg/injection, schedule: Q04DX003 (ip), vehicle: saline with Tween-80): 109 % of control

CCN(CC)C(=S)S
T/C (dose: 100.0 mg/kg/injection, schedule: Q01DX009 (ip), vehicle: saline sonified): 104 % of control | T/C (dose: 200.0 mg/kg/injection, schedule: Q01DX009 (ip), vehicle: saline sonified): 100 % of control | T/C (dose: 400.0 mg/kg/injection, schedule: Q01DX009 (ip), vehicle: saline sonified): 118 % of control | T/C (dose: 400.0 mg/kg/injection, schedule: Q01DX010 (ip), vehicle: water): 100 % of control

[NH-][n+]1c2c(nc3ccccc31)-c1cccc3cccc-2c13
T/C (dose: 12.5 mg/kg/injection, schedule: Q01DX001 (ip), vehicle: Klucel (hydroxypropylcellulose) (HPC)): 111 % of control | T/C (dose: 25.0 mg/kg/injection, schedule: Q01DX001 (ip), vehicle: Klucel (hydroxypropylcellulose) (HPC)): 100 % of control | T/C (dose: 50.0 mg/kg/injection, schedule: Q01DX001 (ip), vehicle: Klucel (hydroxypropylcellulose) (HPC)): 100 % of control

N#CC(=C=[N-])[n+]1ccccc1
T/C (dose: 3.12 mg/kg/injection, schedule: Q01DX009 (ip), vehicle: Klucel (hydroxypropylcellulose) (HPC)): 110 % of control | T/C (dose: 6.25 mg/kg/injection, schedule: Q01DX009 (ip), vehicle: Klucel (hydroxypropylcellulose) (HPC)): 110 % of control | T/C [1]: 100 % of control | T/C (dose: 18.0 mg/kg/injection, schedule: Q01DX009 (ip), vehicle: Klucel (hydroxypropylcellulose) (HPC)): 100 % of control | T/C (dose: 28.0 mg/kg/injection, schedule: Q01DX009 (ip), vehicle: Klucel (hydroxypropylcellulose) (HPC)): 115 % of control

CN(C)/C=C/C=C1C(=O)N(C)C(=O)N(C)C1=O
T/C (dose: 50.0 mg/kg/injection, schedule: Q01DX009 (ip), vehicle: other): 94 % of control | T/C (dose: 100.0 mg/kg/injection, schedule: Q01DX009 (ip), vehicle: other): 97 % of control | T/C (dose: 200.0 mg/kg/injection, schedule: Q01DX009 (ip), vehicle: other): 102 % of control

COc1cc2c3c(c4ccc(O)cc4c2cc1OC)[C@@H](O)[C@@H]1CCCN1C3
T/C (dose: 2.5 mg/kg/injection, schedule: Q01DX009 (ip), vehicle: water): 115 % of control | T/C (dose: 5.0 mg/kg/injection, schedule: Q01DX009 (ip), vehicle: water): 123 % of control

CCCCCCCCCCCCNCc1ccc(O)cc1
T/C [6]: 104 % of control | T/C [4]: 100 % of control | T/C [5]: 108 % of control

COc1ccc(C2NC(=S)NC3=C2CCCC3)cc1 (stereo unspecified)
T/C [7]: 96 % of control | T/C [8]: 107 % of control | T/C [9]: 98 % of control

CSN1C(=O)CCC1=O
T/C (dose: 50.0 mg/kg/injection, schedule: Q04DX002 (ip), vehicle: saline): 107 % of control | T/C (dose: 100.0 mg/kg/injection, schedule: Q04DX002 (ip), vehicle: saline): 100 % of control | T/C (dose: 200.0 mg/kg/injection, schedule: Q04DX002 (ip), vehicle: saline): 109 % of control

O=C(c1ccccc1)c1cccc(Cl)c1
T/C (dose: 50.0 mg/kg/injection, schedule: Q04DX003 (ip), vehicle: Klucel (hydroxypropylcellulose) (HPC)): 104 % of control | T/C (dose: 100.0 mg/kg/injection, schedule: Q04DX003 (ip), vehicle: Klucel (hydroxypropylcellulose) (HPC)): 90 % of control | T/C (dose: 200.0 mg/kg/injection, schedule: Q04DX003 (ip), vehicle: Klucel (hydroxypropylcellulose) (HPC)): 104 % of control

CCc1c(-c2ccccc2)[nH]c2ccccc12
T/C [7]: 115 % of control | T/C [8]: 113 % of control | T/C [9]: 123 % of control

CC(C)(C)c1cc2c3c(c1)C(C)(C)OS3(C)OC2(C)C
T/C (dose: 6.25 mg/kg/injection, schedule: Q04DX003 (ip), vehicle: saline with Tween-80): 102 % of control | T/C (dose: 12.5 mg/kg/injection, schedule: Q04DX003 (ip), vehicle: saline with Tween-80): 100 % of control | T/C [6]: 92 % of control

N#Cc1ccc(OC(=O)c2ccc(N=C(N)N)cc2)cc1
T/C (dose: 50.0 mg/kg/injection, schedule: Q01DX009 (ip), vehicle: saline): 100 % of control | T/C (dose: 100.0 mg/kg/injection, schedule: Q01DX009 (ip), vehicle: saline): 104 % of control | T/C (dose: 100.0 mg/kg/injection, schedule: Q04DX003 (ip), vehicle: saline): 104 % of control | T/C (dose: 200.0 mg/kg/injection, schedule: Q01DX009 (ip), vehicle: saline): 90 % of control | T/C (dose: 200.0 mg/kg/injection, schedule: Q04DX003 (ip), vehicle: saline): 113 % of control

COc1cccc2c1C(=O)c1c(O)c3c(c(O)c1C2=O)CC(O)(/C(C)=N/NC(=O)CCCCCCCCC(=O)N/N=C(\C)C1(O)Cc2c(O)c4c(c(O)c2C(OC2CC(N)C(O)C(C)O2)C1)C(=O)c1c(OC)cccc1C4=O)CC3OC1CC(N)C(O)C(C)O1 (stereo unspecified)
T/C (dose: 3.13 mg/kg/injection, schedule: Q01DX009 (ip), vehicle: water): 172 % of control | T/C (dose: 6.25 mg/kg/injection, schedule: Q01DX009 (ip), vehicle: water): 210 % of control | T/C (dose: 25.0 mg/kg/injection, schedule: Q01DX009 (ip), vehicle: water): 88 % of control

Cc1ccc(C2NC(=O)c3ccccc3N2)c(C)c1 (stereo unspecified)
T/C [2]: 110 % of control | T/C [3]: 110 % of control | T/C (dose: 400.0 mg/kg/injection, schedule: Q01DX009 (ip), vehicle: Klucel (hydroxypropylcellulose) (HPC)): 120 % of control
